Source: US10821148B2, “Pharmaceutical composition for treating or alleviating an autoimmune disease and/or complication thereof and/or nephritis and method for treating or alleviating an autoimmune disease and/or complication thereof and/or nephritis” (Industrial Technology Research Institute, priority 2016, dated 2020)
Where two headings read alike, the source gives them in different places. Each block holds one compound with its values, some of them ahead of it.

Tests used:
[1] = system: IL-17 secretion in EL4 cells; test: Anti-IL-17 secretion screening, platform of EL4 cells; assay type: cell-based, mouse; conditions: PMA + ionomycin, 18 hours
Experimental: 8. Method 8: Anti-IL-17 Secretion Drug Screening Through a Platform of EL4 Cells
The EL4 cells were seeded into a 96-well plate (1×10^5 cells/well), and an appropriate concentration of a drug to be tested was added therein (10 μl/well) and evenly mixed.
(§1) Next, the 96-well plate was placed in an incubator at 37° C. with 5% CO2 for 1 hour. After that, the stimuli, phorbol-12-myristate-13-acetate (PMA) (final concentration was 10 ng/ml), and ionomycin (final concentration was 5 ng/ml) were added to the 96-well plate. After being evenly mixed, the 96-well plate was placed in an incubator for 18 hours.
After 18 hours of culturing, the 96-well plate was centrifuged at 1200 rpm for 5 minutes to let the cells precipitate and the supernatant (cell-cultured medium) was transferred to a new 96-well plate (about 155 μl/well).
The cell-cultured medium in the new 96-well plate was 2-4 fold diluted and the IL-17 concentration was determined by mouse IL-17 ELISA kit (R&D, DY421E).
For both of cell viability and IL-17 content assays, the results of the group with phorbol-12-myristate-13-acetate (PMA) and ionomycin were set as 100%, and the secretion of IL-17 was expressed by percentage.

[2] = system: IL-17 secretion in peripheral blood leukocytes (PBLs); test: Anti-IL-17 secretion screening, peripheral blood leukocyte (PBL) platform; assay type: cell-based; conditions: rat PBL, PMA + ionomycin, 48 hours
Experimental: 2. Method 2: Anti-IL-17 Secretion Drug Screening Through a Peripheral Blood Leukocyte (PBL) Platform
Blood of SD rat was obtained through saphenous vein sampling. The rat blood was placed in a centrifuge tube containing EDTA (final concentration was 2 mg/ml) and mixed well, and then 4-fold volume of ACK buffer was added to the centrifuge tube to lyse red blood cells. The above-mentioned centrifuge tube was placed in a 37° C. water bath for 5 minutes, and 4 folds volume of PBS buffer was added to the centrifuge tube and the centrifuge tube was centrifuged at a speed of 3000 rpm for 5 minutes, and the supernatant was removed. After that, the steps for lysing red blood cells were repeated twice and an appropriate volume of cell culture medium was added to the centrifuge.
as §1, with “The cells was implanted to a 96-well plate (2×10^5 cells/well), and an appropriate concentration of a drug to be tested was added therein (10 μl/well) and evenly mixed. Next,” for “Next,”, “30” for “10”, “1 μg/ml)” for “5 ng/ml)”, “48” for “18”
After 48 hours of culturing, the 96-well plate was centrifuged at 3000 rpm for 5 minutes to let the cells precipitate and the supernatant (cell-cultured medium) was transferred to a new 96-well plate (about 155 μl/well).
After the cell-cultured medium in the new 96 well plate was 2-4 fold diluted, a rat IL-17 ELISA kit (eBioscience, 88-7170) was used to determine IL-17 content thereof.
For both of cell viability assay and IL-17 content assay, the result of the group adding phorbol-12-myristate-13-acetate (PMA) and ionomycin was set as 100%, and secretion of IL-17 was shown by percentage.

IL-6 = test: Lipopolysaccharide (LPS)-induced acute inflammation in mice, IL-6; assay type: in vivo; conditions: plasma, 1.5 hours after 1 mg/kg LPS IP, BALB/c mice
From the text: (§2) 5. Method 5: Model of Lipopolysaccharide (LPS)-Induced Acute Inflammation in Mice
(§3) 6-8 weeks old male BALB/c mice were purchased from BioLASCO Taiwan Co., Ltd. On the day that the animals entered, the mice were marked, separated into cages, and weighed. Then, the mice were quarantined for one week, and the breeding conditions meet the standards of the National Laboratory Animal Center (Taiwan). During the quarantine, the motility and environmental adaptability of the mice were observed. If the body weights of the mice increased normally, the mice were moved to the breeding region to await the implementation of the experiment.
(§4) Illumination for the breeding region was automatically controlled for 12-hr light-dark cycle, and the temperature was controlled at 23±2° C. The animals were free to obtain sufficient food and water. This strain of animals has had abundant basic reference information and data, and can be suitable for a functional evaluation test for inflammation, and the experimental method had been approved by Institutional Animal Care and Use Committees (IACUC) in the Industrial Technology Research Institute.
(§5) 5.2 Treatment of the Mice
(§6) Before the experiment, the mice were weighed and grouped to make the average body weight for each group has no obvious difference, and the clinical symptoms of the mice were recorded. Two to four hours before the experiment, the mice were fasting, but water was still regularly provided. At a specific time before or after being stimulated by lipopolysaccharides (LPS), the mice were administered a drug to be tested through oral administration, intraperitoneal injection (IP) or intravenous injection (IV), and after the administration, the clinical symptoms of the mice were observed and recorded. […] The mice were stimulated by 1 mg/kg lipopolysaccharides (0.25 ml/mouse) through intraperitoneal injection (IP), and the clinical symptoms of the mice were observed and recorded. […]
TNF-α, IL-6 and MCP-1 secretion amounts in the plasma were analyzed according to the analysis steps of Duoset® ELISA kit, and the steps are summarized as follows: […]

MCP-1 = test: Lipopolysaccharide (LPS)-induced acute inflammation in mice, MCP-1; assay type: in vivo; conditions: plasma, 1.5 hours after 1 mg/kg LPS IP, BALB/c mice
From the text: as §2, §3, §4, §5
Before the experiment, the mice were weighed and grouped to make the average body weight for each group has no obvious difference, and the clinical symptoms of the mice were recorded. Two to four hours before the experiment, the mice were fasting, but water was still regularly provided. At a specific time before or after being stimulated by lipopolysaccharides (LPS), the mice were administered a drug to be tested through oral administration, intraperitoneal injection (IP) or intravenous injection (IV), and after the administration, the clinical symptoms of the mice were observed and recorded. The mice of the control group were administered the same volume of solvent. The mice were stimulated by 1 mg/kg lipopolysaccharides (0.25 ml/mouse) through intraperitoneal injection (IP), and the clinical symptoms of the mice were observed and recorded.
After being stimulated by lipopolysaccharides for 1.5 hours, the mice were euthanized with excess CO2, and then whole blood of the mice was obtained through intra-cardiac puncture.
The whole blood of the mice was centrifuged at 6000 rpm at 4° C. for 10 minutes. After that, plasma was collected, and determinations of TNF-α, IL-6 and MCP-1 secretion amounts in the plasma were performed.
5.3 Determinations of TNF-α, IL-6 and MCP-1 Secretion Amounts
TNF-α, IL-6 and MCP-1 secretion amounts in the plasma were analyzed according to the analysis steps of Duoset® ELISA kit, and the steps are summarized as follows:
At room temperature, a capture antibody mixture solution was added to an ELISA 96 well plate (100 μl/well) to cover the surface of the ELISA 96-well plate. […]

NZBWF1/J mice = assay type: in vivo; conditions: for Survival rate (%): 50 mg/kg, NZBWF1/J mice
From the text: 6. Method 6: NZBWF Autoimmune Animal Model for Systemic Lupus Erythematosus (SLE)
NZBWF1/J female mice were purchased from The Jackson Laboratory, U.S.A, and after animal quarantine, the mice were fed to an appropriate age (about 16 to 25 weeks old).
Before the experiment, mice were randomly grouped according to the antibody to double stranded DNA (dsDNA) value of sera, then the mice were started to administrate test articles. Mice were administrated 5 days a week, and after 10-18 weeks of continuous administration, the mice were sacrificed. During the administration, body weight change was recorded every week, mice urine were collected every 1 to 2 week by gently pressing the abdomens of the mice and the urinary protein content (mg/dl) was determined by test strips and a protein quantitative kit.
After the experiment was completed, the urine was collected and the whole blood of the mice was obtained through intra-cardiac puncture. After that, kidneys of the mice were exteriorized and weighed. The appearance and pathological changes of kidneys were recorded, and the kidneys were preserved in 10% neutral formalin for pathological examinations. The pathological score was determined according to the literature, Shackelford et al. Toxicol. Pathol. 30: 93-96, and shown by a score of 0 to 5: a score of 0 represents not present; a score of 1 represents minimal (<1%); a score of 2 represents slight (1-25%); a score of 3 represents moderate (26-50%); a score of 4 represents moderate/severe (51-75%), and a score of 5 represents severe (76-100%).
6.2 Determination of Protein Content in Urine
The abdomen (bladder) of the mouse was gently pressed every 1 to 2 week to make the mouse urinate and the urine was collected in a 1.5 ml centrifuge tube, the protein content (mg/dl) in the urine was determined by urine test strip. The test strip was moistened with the urine and stood for 1 minute, and the protein content was determined by the color shown by the test strip. […] If the color shown by the test strip is between two color regions, the urinary protein content is determined by the mean of the values represented by the two regions. […]
The contents of blood urea nitrogen (BUN) and creatinine (CRE) in the serum were determined by FUJI DRI-CHEM 4000i biochemistry analyzer, and the steps are summarized as follows:
Before the experiment, the urea nitrogen and creatinine test strips and the serum to be tested were placed at room temperature to back to room temperature. After that, according to the instructions of the analyzer, 10 μl of serum was added to the central portion of the test strip (if the value exceeded the detectable range, the serum was appropriately diluted with sterilized water), and then determined. […]

TNF-α = test: Lipopolysaccharide (LPS)-induced acute inflammation in mice, TNF-α; assay type: in vivo; conditions: plasma, 1.5 hours after 1 mg/kg LPS IP, BALB/c mice
From the text: as §2
as §3, with “experiment. […]” for “experiment.”
as §6, with “Two to four hours before the experiment, the mice were fasting, but water was still regularly provided.” left out

Compound: CC1(C)O[C@@H]1COc1c2occc2cc2ccc(=O)oc12 [F7m, prangenin]
IL-17 inhibition IC50, EL4 cells [1]: 47.2 µg/mL | IL-17 inhibition IC50, peripheral blood leukocyte (PBL) [2]: 28.7 µg/mL

IL-17 inhibition IC50, EL4 cells [1]: 5.1 µg/mL | IL-17 inhibition IC50, peripheral blood leukocyte (PBL) [2]: 3.0 µg/mL
Compound: ζ-clausenamide [F6m]
production of the inflammatory factor IL-6 (IL-6): capable of significantly inhibiting the production of the inflammatory factor, IL-6 | production of the inflammatory factor MCP-1 (MCP-1): capable of significantly inhibiting the production of the inflammatory factor, MCP-1

Compound: O=P1(N(CCCl)CCCl)NCCCO1 (centres unmarked) [cyclophosphamide]
Survival rate (%) (NZBWF1/J mice; Table 4 study): 100% | Survival rate (%) (NZBWF1/J mice; Table 8 study): 100% | Survival rate (%) (NZBWF1/J mice; Table 10 study, 12 weeks): 100%

IL-17 inhibition IC50, EL4 cells [1]: 2.8 µg/mL | IL-17 inhibition IC50, peripheral blood leukocyte (PBL) [2]: 2.4 µg/mL
Compound: COc1c(CC=C(C)C)c(C=O)cc2c1[nH]c1ccccc12 [F3m, indizoline]
production of the inflammatory factor IL-6 (IL-6): capable of significantly inhibiting the production of the inflammatory factor, IL-6 | production of the inflammatory factor MCP-1 (MCP-1): capable of significantly inhibiting the production of the inflammatory factor, MCP-1

Compound: CC(C)=CCOc1c2occc2cc2ccc(=O)oc12 [F5m, imperatorin]
IC50 ([1]; Mus musculus, read-out: IL-17 inhibition IC50, EL4 cells): 45 µg/mL | production of the inflammatory factor MCP-1 (MCP-1): capable of significantly inhibiting the production of the inflammatory factor, MCP-1 | production of the inflammatory factor TNF-α (TNF-α): capable of significantly inhibiting the production of the inflammatory factor, TNF-α | IC50 ([2]; Leukocyte, read-out: IL-17 inhibition IC50, peripheral blood leukocyte (PBL)): 20.5 µg/mL

Compound: CC(C)=CCCC(C)=CCOc1c2occc2cc2ccc(=O)oc12 [F4m, 8-geranyloxypsoralen]
survival rate of NZBWF1/J mice (in words) (NZBWF1/J mice; concluded from HE-07-Fr4 (more than 80% of F4m), Table 10): capable of effectively improving the survival rate of NZBWF1/J mice | IL-17 inhibition IC50, EL4 cells [1]: 15.9 µg/mL | production of the inflammatory factor IL-6 (IL-6): capable of significantly inhibiting the production of the inflammatory factor, IL-6 | production of the inflammatory factor MCP-1 (MCP-1): capable of significantly inhibiting the production of the inflammatory factor, MCP-1 | production of the inflammatory factor TNF-α (TNF-α): capable of significantly inhibiting the production of the inflammatory factor, TNF-α | IL-17 inhibition IC50, peripheral blood leukocyte (PBL) [2]: 4.3 µg/mL
